How the values were obtained:
A549 cells = test: Cell-based assay: anti-proliferative activity, Cell Counting Kit-8, 72 hours (A549); conditions: Homo sapiens, A549, 72 h, 72 hours
In short: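 Cell Counting Kit-8 read-out of A549 growth after 72 hours of inhibitor exposure, cells plated in 96-well format. Values reported as IC50.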

MELK = MELK (Homo sapiens, UniProt Q14680); test: Kinase assay: MELK activity, phosphorylation of FITC-labeled histone H3 peptide measured by IMAP fluorescence polarization; type: biochemical; conditions: read-out: IC50 (μM) (kinase assay)
MELK, sequence (Q14680 whole entry, looked up): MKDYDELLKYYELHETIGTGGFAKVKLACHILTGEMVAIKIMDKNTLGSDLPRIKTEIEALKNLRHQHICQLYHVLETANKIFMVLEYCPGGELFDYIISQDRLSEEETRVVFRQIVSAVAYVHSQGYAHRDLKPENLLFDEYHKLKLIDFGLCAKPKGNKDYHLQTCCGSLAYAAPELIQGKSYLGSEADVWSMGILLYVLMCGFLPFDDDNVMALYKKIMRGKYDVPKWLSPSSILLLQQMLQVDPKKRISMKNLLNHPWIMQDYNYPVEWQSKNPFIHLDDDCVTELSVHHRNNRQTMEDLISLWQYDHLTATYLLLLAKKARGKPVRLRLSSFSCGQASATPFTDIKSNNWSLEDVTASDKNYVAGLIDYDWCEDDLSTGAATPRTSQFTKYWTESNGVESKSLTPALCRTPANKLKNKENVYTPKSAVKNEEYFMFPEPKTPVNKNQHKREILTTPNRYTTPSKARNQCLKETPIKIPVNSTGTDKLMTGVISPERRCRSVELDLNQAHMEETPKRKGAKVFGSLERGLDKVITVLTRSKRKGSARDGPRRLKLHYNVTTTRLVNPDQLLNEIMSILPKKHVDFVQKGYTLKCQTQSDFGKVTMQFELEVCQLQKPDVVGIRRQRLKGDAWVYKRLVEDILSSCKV
In short: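 FP readout: FITC-histone H3 peptide phosphorylation, read 0.5 h (RT) after stopping with 3x volume of IMAP progressive binding solution. Final DMSO 1%.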

HT-1197 cells = test: Cell-based assay: anti-proliferative activity, Cell Counting Kit-8, 72 hours (HT-1197, negative control without MELK expression); conditions: Homo sapiens, HT1197, 72 h, HT1197 cells (negative control, no MELK expression), 72 hours
In short: (§1)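 Cellular growth is read by CCK-8 colorimetric kit 72 h after inhibitor addition to seeded cells, and IC50 values are derived from the resulting data; MELK protein levels in these lines are checked beforehand by immunoblotting whole crude lysate.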

T47D cells = test: Cell-based assay: anti-proliferative activity, Cell Counting Kit-8, 72 hours (T47D); conditions: Homo sapiens, T47D, 72 h
In short: as §1

DU4475 cells = test: Cell-based assay: anti-proliferative activity, Cell Counting Kit-8, 72 hours (DU4475); conditions: Homo sapiens, DU-4475, 72 h

Structure (SMILES) | IC50 (A549 cells) [µM] | IC50 (MELK) [µM] | IC50 (HT-1197 cells) [µM] | IC50 (T47D cells) [µM] | IC50 (DU4475 cells) [µM]
CN(C)C[C@]1(O)CC[C@@H](Nc2c(C(=O)C3CC3)cnc3ccc(-c4cc(Cl)c(O)c(Cl)c4)cc23)CC1 [Example 652, cyclopropyl(6-(3,5-dichloro-4-hydroxyphenyl)-4-((cis-4-((dimethylamino)methyl)-4-hydroxycyclohexyl)amino)quinolin-3-yl)methanone] | 0.15 | 0.0011 | 1.4 | 0.15 | 0.051
CCC(=O)c1cnc2ccc(-c3cc(Cl)c(O)c(Cl)c3)cc2c1N[C@H]1CC[C@H](CN(C)C)CC1 [Example 715, 1-(6-(3,5-dichloro-4-hydroxyphenyl)-4-((trans-4-((dimethylamino)methyl)cyclohexyl)amino)quinolin-3-yl)propan-1-one] | 0.11 | 0.0015 | 0.84 | 0.087 | 0.046
O=C(c1cnc2ccc(-c3cc(Cl)c(O)c(Cl)c3)cc2c1Nc1ccc(CN2CCCC2)nc1)C1CC1 [Example 658, Cyclopropyl{6-(3,5-dichloro-4-hydroxyphenyl)-4-[6-(pyrrolidin-1-ylmethyl)pyridin-3-ylamino]quinolin-3-yl}methanone] | 0.072 | 0.0078 | 4.5 | 0.3 | 0.07
COc1cc(-c2ccc3ncc(C(C)=O)c(Nc4ccc(N5CCCC(N)C5)nc4)c3c2)cc(Cl)c1O (centres unmarked) [Example 688, 1-(4-(6-(3-aminopiperidin-1-yl)pyridin-3-ylamino)-6-(3-chloro-4-hydroxy-5-methoxyphenyl)quinolin-3-yl)ethanone] | 0.23 | 0.0032 | 1.7 | 0.056 | 0.11
COc1cc(-c2ccc3ncc(C(=O)C4CC4)c(Nc4cnc(N5CCCC(N)C5)nc4)c3c2)cc(Cl)c1O (centres unmarked) [Example 644, (4-(2-(3-aminopiperidin-1-yl)pyrimidin-5-ylamino)-6-(3-chloro-4-hydroxy-5-methoxyphenyl)quinolin-3-yl)(cyclopropyl)methanone] | 0.23 | 0.0028 | 2.4 | 0.047 | 0.068
CC(C)C(=O)c1cnc2ccc(-c3cc(Cl)c(O)c(Cl)c3)cc2c1Nc1ccc(CN(C)C)cc1 [Example 641, 1-(6-(3,5-dichloro-4-hydroxyphenyl)-4-(4-((dimethylamino)methyl)phenylamino)quinolin-3-yl)-2-methylpropan-1-one] | 0.23 | 0.0076 | 0.74 | 0.22 | 0.097
O=C(c1cnc2ccc(-c3cc(F)c(O)c(Cl)c3)cc2c1Nc1ccc(NCCO)nc1)C1CC1 [Example 679, (6-(3-chloro-5-fluoro-4-hydroxyphenyl)-4-(6-(2-hydroxyethylamino)pyridin-3-ylamino)quinolin-3-yl)(cyclopropyl)methanone] | 1.3 | 0.03 | 3.7 | 0.23 | 0.12
CC(=O)c1cnc2ccc(-c3cc(Cl)c(O)c(Cl)c3)cc2c1Nc1ccc(CCN(C)C)cc1 [Example 744, 1-(6-(3,5-dichloro-4-hydroxyphenyl)-4-(4-(2-(dimethylamino)ethyl)phenylamino)quinolin-3-yl)ethanone] | 0.082 | 0.0017 | 0.43 | 0.11 | 0.031
O=C(c1cnc2ccc(-c3cc(F)c(O)c(Cl)c3)cc2c1Nc1ccc(NC2CCNC2)nc1)C1CC1 (centres unmarked) [Example 667, (6-(3-chloro-5-fluoro-4-hydroxyphenyl)-4-(6-(pyrrolidin-3-ylamino)pyridin-3-ylamino)quinolin-3-yl)(cyclopropyl)methanone] | 7.7 | 0.01 | 10 | 0.17 | 0.077
O=C(c1cnc2ccc(-c3cc(F)c(O)c(Cl)c3)cc2c1NC1CCNCC1)C1CC1 [Example 719, (6-(3-chloro-5-fluoro-4-hydroxyphenyl)-4-(piperidin-4-ylamino)quinolin-3-yl)(cyclopropyl)methanone] | 0.69 | 0.0092 | 10 | 0.32 | 0.17
O=C(c1cnc2ccc(-c3cc(F)c(O)c(Cl)c3)cc2c1Nc1ccc(CN2CCCC2)nc1)C1CC1 [Example 672, (6-(3-chloro-5-fluoro-4-hydroxyphenyl)-4-(6-(pyrrolidin-1-ylmethyl)pyridin-3-ylamino)quinolin-3-yl)(cyclopropyl)methanone] | 0.17 | 0.014 | 3.2 | 0.39 | 0.16
CN(C)CCc1cccc(Nc2c(C(=O)C3CC3)cnc3ccc(-c4cc(Cl)c(O)c(Cl)c4)cc23)c1 [Example 698, Cyclopropyl{6-(3,5-dichloro-4-hydroxyphenyl)-4-[3-(2-(dimethylamino)ethyl)phenylamino]quinolin-3-yl}methanone] | 0.05 | 0.0024 | 10 | 0.3 | 0.04
NC1CCCN(c2ccc(Nc3c(C(=O)C4CC4)cnc4ccc(-c5cc(F)c(O)c(F)c5)cc34)cn2)C1 (centres unmarked) [Example 725, (4-(6-(3-Aminopiperidin-1-yl)pyridin-3-ylamino)-6-(3,5-difluoro-4-hydroxyphenyl)quinolin-3-yl)(cyclopropyl)methanone] | 0.012 | 0.003 | 0.11 | 0.0078 | 0.01
O=C(c1cnc2ccc(-c3cc(F)c(O)c(Cl)c3)cc2c1Nc1ccc(N2CCC(O)C2)nc1)C1CC1 (centres unmarked) [Example 671, (6-(3-chloro-5-fluoro-4-hydroxyphenyl)-4-(6-(3-hydroxypyrrolidin-1-yl)pyridin-3-ylamino)quinolin-3-yl)(cyclopropyl)methanone] | 0.85 | 0.025 | 4.9 | 0.3 | 0.52
COc1cc(-c2ccc3ncc(C(=O)C4CC4)c(Nc4ccc(CN5CCN(C)CC5)nc4)c3c2)cc(Cl)c1O [Example 683, (6-(3-chloro-4-hydroxy-5-methoxyphenyl)-4-(6-((4-methylpiperazin-1-yl)methyl)pyridin-3-ylamino)quinolin-3-yl)(cyclopropyl)methanone] | 1.2 | 0.016 | 9.8 | 0.69 | 1.3
COc1cc(-c2ccc3ncc(C(=O)C4CC4)c(Nc4ccc(NC5CCNC5)nc4)c3c2)cc(Cl)c1O (centres unmarked) [Example 665, (6-(3-chloro-4-hydroxy-5-methoxyphenyl)-4-(6-(pyrrolidin-3-ylamino)pyridin-3-ylamino)quinolin-3-yl)(cyclopropyl)methanone] | 0.53 | 0.0033 | 3.7 | 0.16 | 0.22
COc1cc(-c2ccc3ncc(C(=O)C4CC4)c(NC4CCC(N5CC[C@@H](F)C5)CC4)c3c2)cc(Cl)c1O (stereo partly drawn) [Example 645, (R)-(6-(3-chloro-4-hydroxy-5-methoxyphenyl)-4-(4-(3-fluoropyrrolidin-1-yl)cyclohexylamino)quinolin-3-yl)(cyclopropyl)methanone] | 0.33 | 0.0062 | 2.2 | 0.45 | 0.29
CC(=O)c1cnc2ccc(-c3cc(F)c(O)c(Cl)c3)cc2c1N[C@H]1CC[C@H](CCN(C)C)CC1 [Example 741, 1-(6-(3-chloro-5-fluoro-4-hydroxyphenyl)-4-((trans-4-(2-(dimethylamino)ethyl)cyclohexyl)amino)quinolin-3-yl)ethanone] | 0.085 | 0.0048 | 2 | 0.037 | 0.062
COc1cc(-c2ccc3ncc(C(=O)C4CC4)c(Nc4ccc(N5CCC[C@@H](N)C5)nc4)c3c2)cc(Cl)c1O [Example 649, (R)-(4-(6-(3-aminopiperidin-1-yl)pyridin-3-ylamino)-6-(3-chloro-4-hydroxy-5-methoxyphenyl)quinolin-3-yl)(cyclopropyl)methanone] | 0.15 | 0.0021 | 1.4 | 0.087 | 0.077
CN(CCO)C[C@H]1CC[C@H](Nc2c(C(=O)C3CC3)cnc3ccc(-c4cc(Cl)c(O)c(Cl)c4)cc23)CC1 [Example 634] | 0.095 | 0.0008 | 0.75 | 0.099 | 0.042
COc1cc(-c2ccc3ncc(C(C)=O)c(Nc4cccc(CCN(C)C)c4)c3c2)cc(Cl)c1O [Example 730, 1-(6-(3-chloro-4-hydroxy-5-methoxyphenyl)-4-(3-(2-(dimethylamino)ethyl)phenylamino)quinolin-3-yl)ethanone] | 0.82 | 0.0026 | 8 | 2.1 | 0.69
CN(C)C[C@]1(O)CC[C@@H](Nc2c(C(=O)C3CC3)cnc3ccc(-c4cc(F)c(O)c(Cl)c4)cc23)CC1 [Example 673, (6-(3-chloro-5-fluoro-4-hydroxyphenyl)-4-((cis-4-((dimethylamino)methyl)-4-hydroxycyclohexyl)amino)quinolin-3-yl)(cyclopropyl)methanone] | 0.16 | 0.0042 | 1.4 | 0.16 | 0.089
